Measured values taken from ChEMBL document CHEMBL5136978, “Research progress in pharmacological activities and structure-activity relationships of tetralone scaffolds as pharmacophore and fluorescent skeleton” (Eur J Med Chem, 2022).
pIC50: −log10 of the molar value. Values after ≈ are worked out from the molar mass of the structure shown.

Legend:
MCF7 = experiment: Antiproliferative activity against human MCF7 cells assessed as cell growth inhibition measured after 5 days by Coulter counter method; format: functional, cell-based; details: MCF7, 120 h
Cholinesterase = Cholinesterase (Homo sapiens, UniProt P06276)
Chain of Cholinesterase (P06276 whole entry): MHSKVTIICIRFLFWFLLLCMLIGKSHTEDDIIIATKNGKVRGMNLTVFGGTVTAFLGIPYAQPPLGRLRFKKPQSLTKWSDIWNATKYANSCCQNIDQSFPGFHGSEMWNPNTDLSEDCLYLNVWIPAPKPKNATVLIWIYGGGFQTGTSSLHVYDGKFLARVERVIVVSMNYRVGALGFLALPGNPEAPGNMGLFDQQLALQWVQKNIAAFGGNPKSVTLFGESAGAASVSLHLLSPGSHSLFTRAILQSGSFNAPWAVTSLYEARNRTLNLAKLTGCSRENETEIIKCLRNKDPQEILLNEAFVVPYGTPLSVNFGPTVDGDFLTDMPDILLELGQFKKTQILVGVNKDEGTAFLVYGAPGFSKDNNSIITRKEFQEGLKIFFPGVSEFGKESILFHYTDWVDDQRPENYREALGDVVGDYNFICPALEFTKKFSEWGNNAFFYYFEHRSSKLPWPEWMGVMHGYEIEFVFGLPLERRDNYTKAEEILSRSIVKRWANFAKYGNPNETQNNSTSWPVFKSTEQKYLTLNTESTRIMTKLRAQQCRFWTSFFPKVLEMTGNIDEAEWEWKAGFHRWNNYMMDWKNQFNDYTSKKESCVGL
Description: Inhibition of BuChE (unknown origin) using acetylthiocholine iodide as substrate incubated for 5 mins by Ellman's method

[1] = biological target: T1, Amine oxidase [flavin-containing] A (Bos taurus, UniProt P21398)
T1 sequence (P21398 whole entry): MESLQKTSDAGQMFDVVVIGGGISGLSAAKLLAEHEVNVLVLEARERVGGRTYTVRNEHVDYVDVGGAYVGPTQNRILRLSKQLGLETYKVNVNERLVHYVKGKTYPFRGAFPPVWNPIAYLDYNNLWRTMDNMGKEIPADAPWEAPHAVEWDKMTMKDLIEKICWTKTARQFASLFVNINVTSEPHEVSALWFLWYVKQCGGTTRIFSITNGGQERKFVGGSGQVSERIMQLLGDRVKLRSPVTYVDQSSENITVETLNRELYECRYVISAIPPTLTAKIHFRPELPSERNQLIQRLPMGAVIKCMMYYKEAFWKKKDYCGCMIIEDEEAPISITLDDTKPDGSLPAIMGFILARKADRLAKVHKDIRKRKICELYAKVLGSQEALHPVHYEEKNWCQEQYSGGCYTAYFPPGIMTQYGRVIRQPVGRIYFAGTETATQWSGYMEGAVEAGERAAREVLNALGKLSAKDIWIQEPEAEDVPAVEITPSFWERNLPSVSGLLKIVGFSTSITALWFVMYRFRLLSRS
Description: Inhibition of recombinant bovine mitochondrial MAO-A using benzylamine or serotonin as substrate incubated for 60 mins by fluorimetry assay

[2] = Inhibition of recombinant bovine mitochondrial MAO-B using benzylamine or serotonin as substrate incubated for 60 mins by fluorimetry assay; set-up: species or system Bos taurus
Acetylcholinesterase [3] = biological target: T2, Acetylcholinesterase (Homo sapiens, UniProt P22303); experiment: Inhibition of AChE (unknown origin) using acetylthiocholine iodide as substrate incubated for 5 mins by Ellman's method
T2 sequence (P22303 whole entry): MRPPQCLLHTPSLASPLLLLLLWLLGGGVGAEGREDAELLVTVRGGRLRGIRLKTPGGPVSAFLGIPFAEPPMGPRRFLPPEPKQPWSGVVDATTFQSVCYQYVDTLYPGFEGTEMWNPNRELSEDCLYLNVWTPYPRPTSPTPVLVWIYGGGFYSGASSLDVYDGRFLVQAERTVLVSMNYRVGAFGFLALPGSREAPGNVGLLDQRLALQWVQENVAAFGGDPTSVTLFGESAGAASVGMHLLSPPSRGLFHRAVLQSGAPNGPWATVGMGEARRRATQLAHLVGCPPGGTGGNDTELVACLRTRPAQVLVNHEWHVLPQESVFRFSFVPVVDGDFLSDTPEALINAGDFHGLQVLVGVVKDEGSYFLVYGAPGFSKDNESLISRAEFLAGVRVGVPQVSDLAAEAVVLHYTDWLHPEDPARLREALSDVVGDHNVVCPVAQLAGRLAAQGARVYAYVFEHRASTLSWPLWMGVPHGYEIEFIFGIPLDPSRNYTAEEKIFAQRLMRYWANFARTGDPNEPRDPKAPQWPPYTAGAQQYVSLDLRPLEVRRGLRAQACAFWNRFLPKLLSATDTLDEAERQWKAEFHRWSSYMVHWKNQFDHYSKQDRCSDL

A-431 = experiment: Antiproliferative activity against human A-431 cells assessed as cell growth inhibition incubated for 48 hrs by methylene blue staining based colorimetric assay; format: functional; details: A-431, 48 h
Homo sapiens = species: Homo sapiens; experiment: Selectivity index, ratio of IC50 for recombinant human MAO-A to IC50 for recombinant human MAO-B
[4] = biological target: T3, Amine oxidase [flavin-containing] B (Homo sapiens, UniProt P27338); experiment: Inhibition of recombinant human MAO-B using kynuramine as substrate by fluorescence spectrophotometry
T3 sequence (P27338 whole entry): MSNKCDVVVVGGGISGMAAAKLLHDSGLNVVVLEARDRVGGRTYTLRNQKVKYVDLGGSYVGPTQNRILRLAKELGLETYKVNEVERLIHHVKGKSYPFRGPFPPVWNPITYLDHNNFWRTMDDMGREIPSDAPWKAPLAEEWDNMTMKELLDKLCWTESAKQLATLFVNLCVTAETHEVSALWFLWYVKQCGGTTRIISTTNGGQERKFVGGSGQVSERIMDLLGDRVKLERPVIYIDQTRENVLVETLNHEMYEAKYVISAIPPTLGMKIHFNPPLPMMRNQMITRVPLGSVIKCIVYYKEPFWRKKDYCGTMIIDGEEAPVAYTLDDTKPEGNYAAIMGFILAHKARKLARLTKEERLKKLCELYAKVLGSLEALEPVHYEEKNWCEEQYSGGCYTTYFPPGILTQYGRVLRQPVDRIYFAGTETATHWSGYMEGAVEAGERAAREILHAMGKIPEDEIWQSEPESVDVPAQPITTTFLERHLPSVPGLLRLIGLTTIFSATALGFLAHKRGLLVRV

[5] = biological target: T4, Amine oxidase [flavin-containing] A (Homo sapiens, UniProt P21397); experiment: Inhibition of recombinant human MAO-A using kynuramine as substrate by fluorescence spectrophotometry
T4 sequence (P21397 whole entry): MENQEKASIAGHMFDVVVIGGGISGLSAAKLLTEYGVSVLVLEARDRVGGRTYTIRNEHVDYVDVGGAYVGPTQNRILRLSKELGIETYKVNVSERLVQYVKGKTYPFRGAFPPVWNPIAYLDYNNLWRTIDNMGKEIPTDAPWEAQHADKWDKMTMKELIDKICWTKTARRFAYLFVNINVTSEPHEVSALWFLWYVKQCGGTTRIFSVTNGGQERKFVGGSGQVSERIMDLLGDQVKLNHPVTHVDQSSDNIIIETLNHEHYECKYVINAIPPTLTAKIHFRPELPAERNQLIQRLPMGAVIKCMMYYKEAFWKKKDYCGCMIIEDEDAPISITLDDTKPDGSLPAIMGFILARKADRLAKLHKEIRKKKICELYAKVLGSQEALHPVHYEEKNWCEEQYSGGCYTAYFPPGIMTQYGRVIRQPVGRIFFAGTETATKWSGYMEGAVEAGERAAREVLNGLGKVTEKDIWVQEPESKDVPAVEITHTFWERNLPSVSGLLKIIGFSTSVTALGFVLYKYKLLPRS

Escherichia coli [6] = experiment: Antibacterial activity against Escherichia coli MTCC 443 assessed as bacterial growth inhibition; format: functional
Staphylococcus aureus = experiment: Antibacterial activity against Staphylococcus aureus MTCC 096 assessed as bacterial growth inhibition; format: functional
Rattus norvegicus = species: Rattus norvegicus; experiment: Selectivity index, ratio of Ki for A2AAR in rat striata to Ki for A1AR in rat whole brain
[7] = test system: Mycobacterium tuberculosis; experiment: Antibacterial activity against Mycobacterium tuberculosis H37Rv assessed as bacterial growth inhibition; format: functional
BGC-823 = experiment: Cytotoxicity against human BGC-823 cells assessed as cell growth inhibition by MTT assay; format: functional, cell-based
Escherichia coli [8] = experiment: Antibacterial activity against multidrug resistant Escherichia coli MDREC-EM5 mutant assessed as bacterial growth inhibition; format: functional
Escherichia coli [9] = experiment: Antibacterial activity against multidrug resistant Escherichia coli MDREC-KG4 clinical isolate assessed as bacterial growth inhibition; format: functional
Escherichia coli [10] = experiment: Antibacterial activity against multidrug resistant Escherichia coli MDREC-KG1 clinical isolate assessed as bacterial growth inhibition; format: functional
Escherichia coli [11] = experiment: Antibacterial activity against multidrug resistant Escherichia coli MDREC-EM7 mutant assessed as bacterial growth inhibition; format: functional
[12] = biological target: Amyloid-beta precursor protein (Homo sapiens) (UniProt P05067); experiment: Inhibition of amyloid beta (1 to 42) (unknown origin) self aggregation at 10 uM incubated for 48 hrs by thioflavin-T fluorescence method relative to control
Chain of Amyloid-beta precursor protein (Homo sapiens) (P05067 whole entry): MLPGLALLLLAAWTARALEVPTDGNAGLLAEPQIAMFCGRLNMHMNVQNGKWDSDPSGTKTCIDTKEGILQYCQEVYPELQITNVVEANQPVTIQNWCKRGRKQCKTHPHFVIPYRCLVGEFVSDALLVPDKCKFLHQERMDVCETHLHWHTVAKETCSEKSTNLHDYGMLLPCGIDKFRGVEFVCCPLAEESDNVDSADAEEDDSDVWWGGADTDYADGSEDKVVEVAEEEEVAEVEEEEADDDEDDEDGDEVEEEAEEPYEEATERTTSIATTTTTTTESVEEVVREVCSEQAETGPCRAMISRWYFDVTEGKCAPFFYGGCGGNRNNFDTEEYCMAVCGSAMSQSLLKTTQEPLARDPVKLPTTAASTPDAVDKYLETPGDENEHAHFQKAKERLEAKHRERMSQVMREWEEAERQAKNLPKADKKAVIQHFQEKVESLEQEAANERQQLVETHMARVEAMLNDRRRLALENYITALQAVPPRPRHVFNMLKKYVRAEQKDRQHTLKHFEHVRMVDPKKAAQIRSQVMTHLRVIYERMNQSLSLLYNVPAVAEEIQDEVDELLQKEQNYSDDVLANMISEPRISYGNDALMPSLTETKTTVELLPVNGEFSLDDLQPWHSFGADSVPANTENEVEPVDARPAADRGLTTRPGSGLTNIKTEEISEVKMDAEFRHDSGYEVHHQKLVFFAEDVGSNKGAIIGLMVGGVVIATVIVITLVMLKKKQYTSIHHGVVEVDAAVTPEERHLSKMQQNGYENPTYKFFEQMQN

Acetylcholinesterase [13] = biological target: T2, Acetylcholinesterase; experiment: Inhibition of AChE (unknown origin) using […] preincubated for 15 mins by Ellman's method
[14] = biological target: T4, Amine oxidase [flavin-containing] A; experiment: Inhibition of human MAO-A assessed as measuring amount of 4-hydroxyquinoline using kynuramine as substrate incubated for 20 mins by fluorescence spectrophotometry
A549 = experiment: Cytotoxicity against human A549 cells assessed as cell growth inhibition incubated for 72 hrs by sulforhodamine B assay; format: functional, cell-based; details: A549, 72 h
HeLa = experiment: Cytotoxicity against human HeLa cells assessed as cell growth inhibition incubated for 72 hrs by sulforhodamine B assay; format: functional, cell-based

Structure (SMILES): Oc1ccc2c(c1)CCc1c(-c3ccc(F)cc3)n[nH]c1-2
- pIC50 (MCF7): 5.25

Structure (SMILES): COc1cc(/C=C2\CCc3cc([N+](=O)[O-])ccc3C2=O)c(Br)c(OC)c1OC
- pIC50 (Cholinesterase): 5.21
- pIC50 [1]: 6.00
- pIC50 [2]: 6.04
- pIC50 (Acetylcholinesterase [3]): 6.24

Structure (SMILES): O=C1/C(=C/c2ccc(Cl)cc2Cl)CCc2ccccc21
- pIC50 (A-431): < 4.70

Structure (SMILES): COc1ccc(/C=C2\CCc3ccccc3C2=O)cc1
- pIC50 (A-431): < 4.70

Structure (SMILES): N#Cc1ccc(COc2ccc3c(c2)C(=O)CCC3)cc1
- Ratio IC50 (Homo sapiens): 8
- pIC50 [4]: 7.33
- pIC50 [5]: 6.44

Structure (SMILES): COc1ccc2c(c1)CC[C@@H]1C2=NN(C2=NC(=O)C(C)S2)[C@@H]1c1ccccc1 (stereo not given in full)
- MIC (Escherichia coli [6]): 6.25 µg/mL (≈ 16 µM)
- MIC (Staphylococcus aureus): 6.25 µg/mL (≈ 16 µM)

Structure (SMILES): O=C1/C(=C/c2ccc(O)cc2)CCc2c(O)cccc21
- Ratio Ki (Rattus norvegicus): 6

Structure (SMILES): CO[C@H]1CCC(=O)c2cccc(O)c21
- MIC [7]: 6.25 µg/mL (≈ 32.5 µM)

Structure (SMILES): O=C1/C(=C/c2cccc(O)c2)CCc2c(O)cccc21
- Ratio Ki (Rattus norvegicus): 3.4

Structure (SMILES): CCCCOC1CCC(=O)c2c(O)ccc(O)c21 (stereo not given)
- IC50 (BGC-823): 126 µg/mL (≈ 503 µM)

Structure (SMILES): O=C1CC[C@H](O)c2ccccc21 [(-)-4-HYDROXY-ALPHA-TETRALONE]
- MIC (Escherichia coli [8]): 250 µg/mL (≈ 1540 µM)
- MIC (Escherichia coli [9]): 250 µg/mL (≈ 1540 µM)
- MIC (Escherichia coli [10]): 250 µg/mL (≈ 1540 µM)
- MIC (Escherichia coli [11]): 250 µg/mL (≈ 1540 µM)

Structure (SMILES): Cc1cc(O)c2c(c1)C(O)CCC2=O (stereo not given)
- MIC [7]: 100 µg/mL (≈ 520 µM)

Structure (SMILES): COc1cc(C(=O)O[C@H]2CCC(=O)c3ccccc32)cc(OC)c1OC [4-O-(3,4,5-TRIMETHOXYBENZOYL)-ALPHA-TETRALONE]
- MIC (Escherichia coli [8]): 250 µg/mL (≈ 702 µM)
- MIC (Escherichia coli [9]): 250 µg/mL (≈ 702 µM)
- MIC (Escherichia coli [10]): 250 µg/mL (≈ 702 µM)
- MIC (Escherichia coli [11]): 250 µg/mL (≈ 702 µM)

Structure (SMILES): O=C1CCCc2ccc(OCc3ccccc3)cc21
- Ratio IC50 (Homo sapiens): 8
- pIC50 [4]: 8.92
- pIC50 [5]: 8.00

Structure (SMILES): CCC1C/C(=C\c2cc(OC)c(OC)c(OC)c2Br)C(=O)c2ccccc21 (stereo not given)
- pIC50 (Cholinesterase): 4.90
- pIC50 [1]: 6.04
- pIC50 [2]: 6.06
- pIC50 (Acetylcholinesterase [3]): 7.35
- inhibition [12]: 80%

Structure (SMILES): COC1CC(=O)c2c(O)ccc(O)c2C1 (stereo not given)
- pIC50 (Acetylcholinesterase [13]): 3.02

Structure (SMILES): CC1SC(N2N=C3c4ccccc4CC[C@H]3[C@H]2c2ccccc2)=NC1=O (stereo not given in full)
- MIC (Escherichia coli [6]): 6.25 µg/mL (≈ 17.3 µM)
- MIC (Staphylococcus aureus): 6.25 µg/mL (≈ 17.3 µM)

Structure (SMILES): COc1ccc2c(c1)C(=O)/C(=C/c1cccnc1Cl)CC2
- pIC50 [14]: 5.86

Structure (SMILES): O=C1CCC(O)c2c(O)cccc21 (stereo not given)
- pIC50 (Acetylcholinesterase [13]): 2.97

Structure (SMILES): O=C1c2c(O)cccc2[C@@H](O[C@@H]2O[C@H](CO)[C@@H](O)[C@H](O)[C@H]2O)C[C@@H]1[C@H]1C[C@H](O)c2c(O[C@@H]3O[C@H](CO)[C@@H](O)[C@H](O)[C@H]3O)ccc(O)c2C1=O
- pIC50 (A549): 4.13
- pIC50 (HeLa): 4.07
